The record followed here is patent publication US20230255976A1, “Novel Compounds for the Treatment, Alleviation or Prevention of Disorders Associated with Tau Aggregates” (AC Immune SA, priority 2018, published 2023).

Experiment [1] has as its target T1, Tau K18 fragment aggregates (amino acids 244 to 372 of human Tau441) (Homo sapiens, UniProt P10636).
T1 construct: encompassing amino acids 244 to 372 of the longest isoform (2N4R) of human Tau441; host or cells: bacteria
In words: Tau K18 disaggregation assay by ThT. In kind it is biochemical. The note with it: 2 μM K18 aggregates, compounds 160 to 0.04 μM, 30 min RT, ThT fluorescence. As to the method: Compounds were dissolved in anhydrous dimethyl sulfoxide (DMSO, Sigma-Aldrich) to reach a concentration of 10 mM. K18 aggregates and serial dilutions of compounds were mixed together in PBS (volume 50 μL) to a final concentration of 2 μM of K18 aggregates and from 160 to 0.04 μM of compounds. The mixture was incubated for 30 minutes at room temperature (RT), then 40 μL of this mixture were transferred into a black 384-well plate assay (Perkin-Elmer) and mixed with 10 μL of 100 μM ThT in 250 mM glycine (both from Sigma-Aldrich) in PBS. Fluorescence (relative fluorescence units; RFU) was measured in monoplicate or duplicate on a Tecan reader (excitation: 440 nm; emission: 485 nm). Percentage of K18 disaggregation was then calculated and half maximal effective concentration (EC50) was determined using GraphPad Prism version 5 (GraphPad Software) assuming a one-binding site fitting model.

Experiment [2] has as its system human neuroblastoma cell line overexpressing full-length human Tau carrying the P301L mutation. In words: Reduction of intracellular Tau aggregation (AlphaLISA). The experiment is classed as cell-based. To be noted: compound at 5 μM, 24 h; aggregated Tau normalized to total Tau, relative to DMSO-treated cells. As to the method:
A human neuroblastoma cell line overexpressing the full-length form of human Tau carrying the P301 L mutation was cultured in complete medium [DMEM-F12 4.5 g/L Glutamax (Invitrogen), 15% FBS (Biochrom), 1% Peni/Strep (Invitrogen) supplemented with 2.5 μg/ml of G418 (Sigma-Aldrich) selection antibiotic]. The day before the experiment 5×10^5 cells/well were plated in a 6 well plate in 3 mL of complete medium. The next day, cells were incubated with DMSO or a compound of the present invention at 5 μM for additional 24 h at 37° C. […]
Phosphorylated, aggregated, and total Tau were quantified by AlphaLisa using the following antibody pairs: • HT7-Acceptor beads+biotin (BT)-Tau13-Donor beads: Total Tau • HT7-Acceptor beads+biotin (BT)-HT7-Donor beads: Aggregated human Tau […]
After incubation of this mixture at room temperature for 1 h, 25 μL of Streptavidin Donor beads (Perkin Elmer) at 25 μg/mL were added in the dark. Plates were analyzed after 30 min incubation using the EnSpire Alpha instrument and EnSpire Workstation version 3.00. Data for aggregated Tau were normalized to total Tau and then expressed as percentage of the DMSO-treated cells.

T1 sequence (P10636 561-689): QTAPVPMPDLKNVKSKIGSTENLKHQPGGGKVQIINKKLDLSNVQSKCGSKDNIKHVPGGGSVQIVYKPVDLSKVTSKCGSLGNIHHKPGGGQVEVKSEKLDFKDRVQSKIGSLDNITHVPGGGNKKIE

By EC50 is commonly meant the midpoint of the concentration-response curve. Higher therefore signals weaker potency. In experiment [1], `Fc1ccc2[nH]c3c(c2c1)CC1CCC3N1c1ccc(N2CCOCC2)cn1` (centres unmarked) [Example 47] gave an EC50 of 10 to 25 µM. Regarding `c1ccc2c3c([nH]c2c1)CN(c1ccc(N2CCOCC2)nc1)CC3` [Example 44], in experiment [2], the “% Reduction of intracellular Tau aggregation” value is listed as “+++ (+++ % >50)”.
